According to BindingDB's records for doi:10.1016/j.bmcl.2010.06.084 (Phenex Pharmaceuticals, 2010):

These compounds were tested against T1, Nuclear receptor subfamily 1 group I member 2 (Homo sapiens, UniProt O75469) (assay: Agonist activity at PXR-LBD expressed in HEK293 cells assessed as Gal4-DBD interaction by cellular mammalian one hybrid assay).
T1 sequence (O75469 whole entry): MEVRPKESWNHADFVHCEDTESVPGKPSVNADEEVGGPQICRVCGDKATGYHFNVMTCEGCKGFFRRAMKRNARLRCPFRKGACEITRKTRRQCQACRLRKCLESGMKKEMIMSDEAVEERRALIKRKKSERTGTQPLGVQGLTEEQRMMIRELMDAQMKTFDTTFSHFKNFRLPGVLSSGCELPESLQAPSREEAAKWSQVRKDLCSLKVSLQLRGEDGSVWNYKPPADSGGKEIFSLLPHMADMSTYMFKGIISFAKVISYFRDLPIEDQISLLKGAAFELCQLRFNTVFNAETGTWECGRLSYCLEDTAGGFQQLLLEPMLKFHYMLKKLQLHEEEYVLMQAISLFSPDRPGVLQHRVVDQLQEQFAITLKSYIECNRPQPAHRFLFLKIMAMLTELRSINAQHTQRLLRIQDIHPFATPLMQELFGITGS

EC50 [nM]	Structure (SMILES)
390	CN(Cc1cccc(C(=O)O)c1)c1ccc(OCc2c(-c3c(Cl)cccc3Cl)noc2C2CC2)nc1C(F)(F)F [3-(((6-((5-cyclopropyl-3-(2,6-dichlorophenyl)isoxazol-4-yl)methoxy)-2-(trifluoromethyl)pyridin-3-yl)(methyl)amino)methyl)benzoic acid]
> 1280	CC(C)c1onc(-c2c(Cl)cccc2Cl)c1COc1ccc(N(C)Cc2ccc(C(=O)O)cc2)c(C(F)(F)F)n1 [4-(((6-((3-(2,6-dichlorophenyl)-5-isopropylisoxazol-4-yl)methoxy)-2-(trifluoromethyl)pyridin-3-yl)(methyl)amino)methyl)benzoic acid]
3870	CN(Cc1ccc(C(=O)O)cc1)c1ccc(OCc2c(-c3c(Cl)cccc3Cl)noc2C2CC2)nc1C(F)(F)F [4-(((6-((5-cyclopropyl-3-(2,6-dichlorophenyl)isoxazol-4-yl)methoxy)-2-(trifluoromethyl)pyridin-3-yl)(methyl)amino)methyl)benzoic acid]
